Laboratory results: patent US5750558A, “Oxime derivatives of indole and indene compounds as inhibitors of prostaglandin biosynthesis” (Abbott Laboratories, priority 1996, dated 1998)

How the values were obtained:
recombinant human PGHS-2 = molecular target: T1, recombinant human PGHS-2 (Homo sapiens, UniProt P35354); experiment: Inhibition of prostaglandin biosynthesis in recombinant human PGHS-2 enzyme assay (PGE2 by EIA); assay type: biochemical
T1 construct: made in house; host or cells: baculovirus/Sf9 insect cells (microsomes)
T1 sequence (P35354 18-604): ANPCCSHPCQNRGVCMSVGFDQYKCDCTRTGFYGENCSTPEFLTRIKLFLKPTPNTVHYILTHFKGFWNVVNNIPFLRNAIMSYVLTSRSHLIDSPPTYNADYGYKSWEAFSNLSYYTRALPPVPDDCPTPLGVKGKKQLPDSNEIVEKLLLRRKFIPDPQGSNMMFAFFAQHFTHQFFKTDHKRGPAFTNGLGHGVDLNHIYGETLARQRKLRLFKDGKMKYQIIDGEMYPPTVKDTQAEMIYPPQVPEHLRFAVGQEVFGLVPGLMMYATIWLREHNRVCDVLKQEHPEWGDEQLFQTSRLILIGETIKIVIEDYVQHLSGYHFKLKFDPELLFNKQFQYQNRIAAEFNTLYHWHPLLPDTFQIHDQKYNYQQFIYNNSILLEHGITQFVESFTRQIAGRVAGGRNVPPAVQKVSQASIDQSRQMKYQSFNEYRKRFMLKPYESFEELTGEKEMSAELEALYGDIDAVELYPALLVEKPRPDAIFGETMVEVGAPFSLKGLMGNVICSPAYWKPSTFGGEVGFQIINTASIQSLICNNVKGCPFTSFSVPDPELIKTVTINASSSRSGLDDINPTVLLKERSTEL
Experimental: (§1) Inhibition of prostaglandin biosynthesis was evaluated in recombinant human PGHS-1 and PGHS-2 enzyme assays. Representative compounds dissolved in DMSO (3.3% v/v) were preincubated with microsomes from recombinant human PGHS-1 or PGHS-2 expressed in the baculovirus/Sf9 cell system (Gierse, J. K., Hauser, S. D., Creely, D. P., Koboldt, C., Rangwala, S., H., Isakson, P. C., and Seibert, K. Expression and selective inhibition of the constituitive and inducible forms of cyclooxygenase Biochem J. 1995, 305: 479.), together with the cofactors phenol (2 mM) and hematin (1 μM) for 60 minutes prior to the addition of 10 μM arachidonic acid. The reaction was allowed to run for 2.5 minutes at room temperature prior to quenching with HCl and neutralization with NaOH. PGE2 production in the presence and absence of the drug was determined by EIA analysis. The EIA was conducted in 96 well microtiter plates (Nunc Roskilde, Denmark) and optical density measured using a microplate reader (Vmax, Molecular Devices Corp., Menlo Park, Calif.). EIA reagents for prostaglandin determination were purchased from Perseptive Diagnostics, Cambridge, Mass. PGE2 levels were measured against standards prepared in the same milieu. The immunoassays were conducted as recommended by the manufacturer.

recombinant human PGHS-1 = molecular target: T2, recombinant human PGHS-1 (Homo sapiens, UniProt P23219); experiment: Inhibition of prostaglandin biosynthesis in recombinant human PGHS-1 enzyme assay (PGE2 by EIA); assay type: biochemical
T2 construct: made in house; host or cells: baculovirus/Sf9 insect cells (microsomes)
Experimental: as §1

PGHS-1 = conditions: background statement; cited from earlier work
PGHS-2 = conditions: background statement; cited from earlier work

T2 sequence (P23219 24-599): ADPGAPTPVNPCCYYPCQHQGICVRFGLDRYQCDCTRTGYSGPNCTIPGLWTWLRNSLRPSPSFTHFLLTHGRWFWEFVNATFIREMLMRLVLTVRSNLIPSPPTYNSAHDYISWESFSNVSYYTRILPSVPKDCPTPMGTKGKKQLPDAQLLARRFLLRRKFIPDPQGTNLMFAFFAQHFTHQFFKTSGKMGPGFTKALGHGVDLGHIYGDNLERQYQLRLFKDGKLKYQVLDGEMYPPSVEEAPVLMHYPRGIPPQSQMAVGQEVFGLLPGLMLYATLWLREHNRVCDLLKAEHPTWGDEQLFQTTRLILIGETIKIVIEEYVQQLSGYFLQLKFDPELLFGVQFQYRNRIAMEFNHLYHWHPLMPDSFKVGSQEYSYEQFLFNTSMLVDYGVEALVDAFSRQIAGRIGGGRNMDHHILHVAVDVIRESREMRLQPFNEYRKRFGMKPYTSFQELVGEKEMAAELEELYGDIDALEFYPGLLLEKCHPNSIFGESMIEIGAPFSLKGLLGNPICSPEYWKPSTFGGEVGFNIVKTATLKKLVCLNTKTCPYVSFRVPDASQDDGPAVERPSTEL

SMILES | inhibition of PGHS-1 (PGHS-1) | inhibition of PGHS-2 (PGHS-2) | other results
COc1ccc2c(c1)c(CC=NOCC(=O)OCC(O)CO)c(C)n2C(=O)c1ccc(Cl)cc1 (racemic) [Example 3, (4-chlorobenzoyl-5-methoxy-2-methylindol-3-yl) acetaldehyde-.omicron.-4-(2.3-dihydroxypropyloxycarbonylmethyl) oxime] | – | – | inhibition at 0.1 µM (recombinant human PGHS-2; @ 0.1 μM, human recombinant PGHS-2, read-out: PGHS-2 % inhibition (printed in PGHS-2 IC50 column)): 70%; inhibition at 1 µM (recombinant human PGHS-1; @ 1 μM, human recombinant PGHS-1, read-out: PGHS-1 % inhibition (printed in PGHS-1 IC50 column)): 41%
COc1ccc2c(c1)c(CC=NOCC(=O)O)c(C)n2C(=O)c1ccc(Cl)cc1 [Example 1, (4-chlorobenzoyl-5-methoxy-2-methylindol-3-yl) acetaldehyde-.omicron.-carboxymethyl oxime] | – | – | IC50 (recombinant human PGHS-2): 730 nM
COc1ccc2c(c1)c(CC=NOCC(=O)OCC1COC(C)(C)O1)c(C)n2C(=O)c1ccc(Cl)cc1 (stereo not shown) [Example 2, (4-chlorobenzoyl-5-methoxy-2-methylindol-3-yl) acetaldehyde-.omicron.-4-(2.2-dimethyldioxanylmethyloxycarbonylmethyl) oxime] | – | – | IC50 (recombinant human PGHS-2): 3 nM; IC50 (recombinant human PGHS-1): 90 nM
COc1ccc2c(c1)c(CC(=O)O)c(C)n2C(=O)c1ccc(Cl)cc1 [Indomethacin] | inhibit both PGHS-1 and PGHS-2 | inhibit both PGHS-1 and PGHS-2 | –
CC(C)Cc1ccc(C(C)C(=O)O)cc1 (stereo not shown) [ibuprofen] | inhibit both isozymes | inhibit both isozymes | –
COc1ccc2cc([C@H](C)C(=O)O)ccc2c1 [naproxen] | inhibit both isozymes | inhibit both isozymes | –
CC1=C(CC(=O)O)c2cc(F)ccc2/C1=C\c1ccc([S+](C)[O-])cc1 (stereo not shown) [sulindac] | inhibit both PGHS-1 and PGHS-2 | inhibit both PGHS-1 and PGHS-2 | –
